Experimental data published in patent US11517617B2, “Methods and compositions for preventing influenza infection” (THE UNIVERSITY OF MELBOURNE, priority 2017, dated 2022).
No end group written: not given here.

Experiments:
[1] = system: CD8^+ T cells; type: cell-based, human
[2] = system: memory CD8^+ T cells within PBMCs; type: cell-based, human

GILGFVFVL [M158-66, GILGFVFVL, reference compound]
additional low avidity CD8^+ T cells detected by Q115E staining [1]: could be detected

VADGGPNIY (Influenza B virus) [BPB1590-598, IBV variant of PB1591-599]
cross-reactivity of CD8^+ T cells after in vitro expansion with the peptide [2]: could not expand CD8^+ T cells | recognition of IBV-derived variant by IAV-expanded CD8^+ T cells [2]: to a lesser extent

VSDGGPNLY (Influenza A virus) [PB1591-599]
cross-reactivity of CD8^+ T cells after in vitro expansion with the peptide [2]: recognizing both IAV- and IBV-derived peptides
